In patent publication US8546565B2, “Quinazolinamide derivatives” (Merck Patent Gesellschaft, priority 2008, dated 2013):

Target: T1, Recombinant human HSP90a (Homo sapiens, UniProt P07900)
T1 construct: host or cells: E. coli
Assay: HSP90 radioligand filter binding test ([3H]17AAG competition)
Conditions: [3H]17AAG 0.08 μM, HSP90 1.5 μg/assay, 22° C., 30 min; read-out: IC50 (HSP90 inhibition)
Text: Test Method for the Measurement of HSP90 Inhibitors
The binding of geldanamycin or 17-allylamino-17-demethoxygeldanamycin (17AAG) to HSP90 and competitive inhibition thereof can be utilised in order to determine the inhibitory activity of the compounds according to the invention (Carreras et al. 2003, Chiosis et al. 2002).
In the specific case, a radioligand filter binding test is used. The radioligand used here is tritium-labelled 17-allylaminogeldanamycin, [3H]17AAG. This filter binding test allows a targeted search for inhibitors which interfere with the ATP binding site.
Recombinant human HSP90a (E. coli expressed, 95% purity);
[3H]17AAG (17-allylaminogeldanamycin, [allylamino-2,3-^3H. Specific activity: 1.11×10^12 Bq/mmol (Moravek, MT-1717);
HEPES filter buffer (50 mM HEPES, pH 7.0, 5 mM MgCl2, BSA 0.01%)
Multiscreen FB (1 μm) filter plate (Millipore, MAFBNOB 50).
The 96-well microtitre filter plates are firstly irrigated and coated with 0.1% of polyethylenimine.
The test is carried out under the following conditions:
Reaction temperature 22° C.
Reaction time: 30 min., shaking at 800 rpm
50 mM HEPES HCl, pH 7.0, 5 mM MgCl2, 0.01% (w/v) of BSA
At the end of the reaction, the supernatant in the filter plate is removed by suction with the aid of a vacuum manifold (Multiscreen Separation System, Millipore), and the filter is washed twice.
The filter plates are then measured in a beta counter (Microbeta, Wallac) with scintillator (Microscint 20, Packard).
“% of control” is determined from the “counts per minutes” values, and the IC-50 value of a compound is calculated therefrom.

Row | SMILES | IC50
1 | CCNC(=O)c1ccccc1-c1ccc2nc(N)nc(C(=O)N3Cc4ccccc4C3)c2c1 [Compound A41, 2-[2-Amino-4-(1,3-dihydroisoindole-2-carbonyl)quinazolin-6-yl]-N-ethylbenzamide] | 10 to 1000 nM
2 | CC1CCCN1C(=O)c1ccccc1-c1ccc2nc(N)nc(C(=O)N3Cc4ccccc4C3)c2c1 (centres unmarked) [Compound A42, {2-Amino-6-[2-(2-methylpyrrolidine-1-carbonyl)phenyl]quinazolin-4-yl}-(1,3-dihydroisoindol-2-yl)methanone] | 10 to 1000 nM
3 | Nc1nc(C(=O)N2Cc3ccccc3C2)c2cc(-c3ccccc3C(=O)N3CCC(N)C3)ccc2n1 (centres unmarked) [Compound A43, {2-amino-6-[2-(3-aminopyrrolidine-1-carbonyl)phenyl]quinazolin-4-yl}-(1,3-dihydroisoindol-2-yl)methanone] | 10 to 1000 nM
4 | Nc1nc(C(=O)N2Cc3ccccc3C2)c2cc(-c3ccccc3C(=O)N3CCCC3C(=O)O)ccc2n1 (centres unmarked) [Compound A44, 1-{2-[2-Amino-4-(1,3-dihydroisoindole-2-carbonyl)quinazolin-6-yl]-benzoyl}pyrrolidine-2-carboxylic acid] | 10 to 1000 nM
5 | CCN(CC)S(=O)(=O)c1ccccc1-c1ccc2nc(N)nc(C(=O)N3Cc4ccccc4C3)c2c1 [Compound A45, 2-[2-Amino-4-(1,3-dihydroisoindole-2-carbonyl)quinazolin-6-yl]-N,N-diethylbenzenesulfonamide] | 10 to 1000 nM
6 | Nc1nc(C(=O)N2Cc3ccccc3C2)c2cc(-c3ccccc3C(=O)NC3CCC3)ccc2n1 [Compound A46, 2-[2-Amino-4-(1,3-dihydroisoindole-2-carbonyl)quinazolin-6-yl]-N-cyclobutylbenzamide] | 10 to 1000 nM
7 | CC(C)(C)NC(=O)c1ccccc1-c1ccc2nc(N)nc(C(=O)N3Cc4ccccc4C3)c2c1 [Compound A47, 2-[2-Amino-4-(1,3-dihydroisoindole-2-carbonyl)quinazolin-6-yl]-N-tert-butylbenzamide] | 10 to 1000 nM
8 | Nc1nc(C(=O)N2Cc3ccccc3C2)c2cc(-c3ccccc3C(=O)NC3CC3)ccc2n1 [Compound A48, 2-[2-Amino-4-(1,3-dihydroisoindole-2-carbonyl)quinazolin-6-yl]-N-cyclopropylbenzamide] | 10 to 1000 nM
9 | Nc1nc(C(=O)N2Cc3ccccc3C2)c2cc(-c3ccccc3C(=O)N3CCC(F)(F)C3)ccc2n1 [Compound A49, {2-Amino-6-[2-(3,3-difluoropyrrolidine-1-carbonyl)phenyl]quinazolin-4-yl}-(1,3-dihydroisoindol-2-yl)methanone] | 10 to 1000 nM
10 | CNC(=O)C1CCCN1C(=O)c1ccccc1-c1ccc2nc(N)nc(C(=O)N3Cc4ccccc4C3)c2c1 (centres unmarked) [Compound A50, 1-{2-[2-amino-4-(1,3-dihydroisoindole-2-carbonyl)quinazolin-6-yl]benzoyl}pyrrolidine-2-methylamide] | 1000 to 10000 nM
11 | Nc1nc(C(=O)N2Cc3ccccc3C2)c2cc(-c3ccccc3S(=O)(=O)NC3CCC3)ccc2n1 [Compound A51, 2-[2-Amino-4-(1,3-dihydroisoindole-2-carbonyl)quinazolin-6-yl]-N-cyclobutylbenzenesulfonamide] | 10 to 1000 nM
12 | Nc1nc(C(=O)N2Cc3ccccc3C2)c2cc(-c3ccccc3S(=O)(=O)NC3CC3)ccc2n1 [Compound A52, 2-[2-Amino-4-(1,3-dihydroisoindole-2-carbonyl)quinazolin-6-yl]-N-cyclopropylbenzenesulfonamide] | 10 to 1000 nM
13 | Nc1nc(C(=O)N2Cc3ccccc3C2)c2cc(-c3ccccc3S(=O)(=O)N3CCC(F)(F)C3)ccc2n1 [Compound A53, {2-Amino-6-[2-(3,3-difluoropyrrolidine-1-sulfonyl)phenyl]quinazolin-4-yl}-(1,3-dihydroisoindol-2-yl)methanone] | 10 to 1000 nM
14 | Nc1nc(C(=O)N2Cc3ccccc3C2)c2cc(-c3ccccc3C(=O)N3CCC3)ccc2n1 [Compound A54] | 10 to 1000 nM
15 | CCN(CCN(C)C)C(=O)c1ccccc1-c1ccc2nc(N)nc(C(=O)N3Cc4ccccc4C3)c2c1 [Compound A55] | 10 to 1000 nM
16 | CN(C(=O)c1ccccc1-c1ccc2nc(N)nc(C(=O)N3Cc4ccccc4C3)c2c1)C(C)(C)C [Compound A56, 2-[2-Amino-4-(1,3-dihydroisoindole-2-carbonyl)quinazolin-6-yl]-N-tert-butyl-N-methylbenzamide] | 10 to 1000 nM
17 | CC1CCC(C)N1C(=O)c1ccccc1-c1ccc2nc(N)nc(C(=O)N3Cc4ccccc4C3)c2c1 (centres unmarked) [Compound A57] | 10 to 1000 nM
18 | CNC(=O)C1CCCN1S(=O)(=O)c1ccccc1-c1ccc2nc(N)nc(C(=O)N3Cc4ccccc4C3)c2c1 (centres unmarked) [Compound A58, 1-{2-[2-amino-4-(1,3-dihydroisoindole-2-carbonyl)quinazolin-6-yl]benzenesulfonyl}pyrrolidine-2-methylamide] | 10 to 1000 nM

Row | SMILES | IC50
19 | CN(C(C)(C)C)S(=O)(=O)c1ccccc1-c1ccc2nc(N)nc(C(=O)N3Cc4ccccc4C3)c2c1 [Compound A59, 2-[2-Amino-4-(1,3-dihydroisoindole-2-carbonyl)quinazolin-6-yl]-N-tert-butyl-N-methylbenzenesulfonamide] | 10 to 1000 nM
20 | Nc1nc(C(=O)N2Cc3ccccc3C2)c2cc(-c3ccccc3S(=O)(=O)N3CC(F)(F)C3)ccc2n1 [Compound A60] | 10 to 1000 nM
21 | Nc1nc(C(=O)N2Cc3ccccc3C2)c2cc(-c3ccccc3S(=O)(=O)N3CCCC3C(=O)NCCO)ccc2n1 (centres unmarked) [Compound A61, N-(2-hydroxyethyl)-1-{2-[2-amino-4-(1,3-dihydroisoindole-2-carbonyl)quinazolin-6-yl]benzenesulfonyl}pyrrolidine-2-carboxamide] | 10 to 1000 nM
22 | Nc1nc(C(=O)N2Cc3ccccc3C2)c2cc(-c3ccccc3C(=O)N3CC[C@H](F)C3)ccc2n1 [Compound A62] | 10 to 1000 nM
23 | C[C@@H]1CCCN1C(=O)c1ccccc1-c1ccc2nc(N)nc(C(=O)N3Cc4ccccc4C3)c2c1 [Compound A63] | 10 to 1000 nM
24 | CC1CCC(C)N1S(=O)(=O)c1ccccc1-c1ccc2nc(N)nc(C(=O)N3Cc4ccccc4C3)c2c1 (centres unmarked) [Compound A64, {2-amino-6-[2-(2,5-dimethylpyrrolidine-1-sulfonyl)phenyl]-quinazolin-4-yl}-(1,3-dihydroisoindol-2-yl)methanone] | 10 to 1000 nM
25 | CN(C1CC1)S(=O)(=O)c1ccccc1-c1ccc2nc(N)nc(C(=O)N3Cc4ccccc4C3)c2c1 [Compound A65, 2-[2-amino-4-(1,3-dihydroisoindole-2-carbonyl)quinazolin-6-yl]-N-cyclopropyl-N-methylbenzenesulfonamide] | 10 to 1000 nM
26 | C[C@@H]1CCCN1S(=O)(=O)c1ccccc1-c1ccc2nc(N)nc(C(=O)N3Cc4ccccc4C3)c2c1 [Compound A66, {2-Amino-6-[2-((R)-2-methylpyrrolidine-1-sulfonyl)phenyl]quinazolin-4-yl}-(1,3-dihydroisoindol-2-yl)methanone] | 10 to 1000 nM
27 | Nc1nc(C(=O)N2Cc3ccccc3C2)c2cc(-c3ccccc3S(=O)(=O)N3CC[C@H](F)C3)ccc2n1 [Compound A67, {2-Amino-6-[2-((S)-3-fluoropyrrolidine-1-sulfonyl)phenyl]quinazolin-4-yl}-(1,3-dihydroisoindol-2-yl)methanone] | 10 to 1000 nM
28 | CN(C1CNC1)S(=O)(=O)c1ccccc1-c1ccc2nc(N)nc(C(=O)N3Cc4ccccc4C3)c2c1 [Compound A68] | 10 to 1000 nM
29 | CCN(CC)C(=O)c1cc(F)c(F)cc1-c1ccc2nc(N)nc(C(=O)N3Cc4ccccc4C3)c2c1 [Compound A69, 2-[2-Amino-4-(1,3-dihydroisoindole-2-carbonyl)quinazolin-6-yl]-N,N-diethyl-4,5-difluorobenzamide] | 10 to 1000 nM
30 | CCN(CC)C(=O)c1ccc(F)cc1-c1ccc2nc(N)nc(C(=O)N3Cc4ccccc4C3)c2c1 [Compound A70] | 10 to 1000 nM
31 | CCN(CC)C(=O)c1cc(F)ccc1-c1ccc2nc(N)nc(C(=O)N3Cc4ccccc4C3)c2c1 [Compound A71, 2-[2-Amino-4-(1,3-dihydroisoindole-2-carbonyl)quinazolin-6-yl]-N,N-diethyl-5-fluorobenzamide] | 10 to 1000 nM
32 | C[C@H]1CCCN1C(=O)c1ccccc1-c1ccc2nc(N)nc(C(=O)N3Cc4ccccc4C3)c2c1 [Compound A72, {2-Amino-6-[2-((S)-2-methylpyrrolidine-1-carbonyl)phenyl]quinazolin-4-yl}-(1,3-dihydroisoindol-2-yl)methanone] | 10 to 1000 nM
33 | Nc1nc(C(=O)N2Cc3ccccc3C2)c2cc(-c3ccccc3C(=O)N(CCO)CCO)ccc2n1 [Compound A73] | 10 to 1000 nM
34 | CCNC(=O)c1cc(F)c(F)cc1-c1ccc2nc(N)nc(C(=O)N3Cc4ccccc4C3)c2c1 [Compound A74, 2-[2-Amino-4-(1,3-dihydroisoindole-2-carbonyl)quinazolin-6-yl]-N-ethyl-4,5-difluorobenzamide] | 10 to 1000 nM
35 | CCN(CCO)C(=O)c1cc(F)c(F)cc1-c1ccc2nc(N)nc(C(=O)N3Cc4ccccc4C3)c2c1 [Compound A75, 2-[2-Amino-4-(1,3-dihydroisoindole-2-carbonyl)quinazolin-6-yl]-N-ethyl-4,5-difluoro-N-(2-hydroxyethyl)benzamide] | 10 to 1000 nM
